In patent publication US20110250292A1, “COMPOSITION FOR IMPROVING RA[…] CANCER” (CHONJISAN CO., LTD., priority 2008, published 2011):

What was measured:
[1] = oral dosage form; Z. X. Shen et al., Blood 89 (1997); cited from earlier work
[2] = system: Meth-A tumor (WEHI164 fibrosarcoma); test: Irradiation and tetra-arsenic oxide treatment on Balb/c mouse having Meth-A tumor (tumor volume); format: in vivo; details: 8 mg/kg once into abdominal cavity 1 hour after single local irradiation; 6 mice; FIG. 1; *p<0.05
Protocol: (§1) Balb/c, and Balb/c, nu/nu female mice (weight: 20 to 25 g, age: 6 to 8 weeks) were obtained from Orient bio (Taejun, Korea), and WEHI164 tumor cell line (derived from Meth-A-induced fibrosarcoma) and FaDu tumor cell line (derived from human nasopharyngeal squamous cell carcinoma) were bought from KCCB (Seoul, Korea). WEHI164 cells (5×10^5) or FaDu cells (1×10^6) in MEM 50 μl were hypodermically injected into a rear leg of a Balb/c or Balb/c nu/nu mouse, and then the growth of a tumor was observed.
(§2) Tetra-arsenic oxide obtained from Genew Science (Seoul, Korea) was placed in distilled water, and continuously stilled and dissolved. The resultant liquid was stored as a stock liquid at 4° C. The stock liquid was diluted with a phosphoric acid buffer solution in such a manner as to have a final concentration of 0.5 mg/ml.
In order to minimize acute arsenic toxicity, dextrose was added with a final concentration of 5% (F. X. Reichl, H. Kreppel, L. Szinicz, B. Fichtl, and W. Forth, Reduction of arsenic trioxide toxicity in mice by repeated treatment with glucose. Arch Toxicol Suppl 14 (1991) 225-7).
In irradiation, a cobalt-60 unit (Theratron 780; AECL, Kanata, Ontarino, Canada) was used. […]
A change in the tumor size was measured by calipers twice to three times per week. A tumor volume was calculated by a×b×h/2 (a=minimum length, b=maximum length, h=height). […]

[3] = system: human nasopharyngeal squamous cell carcinoma (FaDu); test: Single irradiation and tetra-arsenic oxide treatment on Balb/c nu/nu mouse having human nasopharyngeal squamous cell carcinoma (tumor volume); format: in vivo; details: FIGS. 2 and 3
Protocol: as §1, §2
(§3) In order to minimize acute arsenic toxicity, dextrose was added with a final concentration of 5% (F. X. Reichl, H. Kreppel, L. Szinicz, B. Fichtl, and W. Forth, Reduction of arsenic trioxide toxicity in mice by repeated treatment with glucose. Arch Toxicol Suppl 14 (1991) 225-7). […]
(§4) A tumor volume was measured twice to three times per week. The tumor size was measured by calipers, and the tumor volume was calculated by a×b×h/2 (a=minimum length, b=maximum length, h=height). […]

[4] = system: human nasopharyngeal squamous cell carcinoma (FaDu); test: Fractional irradiation and tetra-arsenic oxide treatment on Balb/c nu/nu mouse having human nasopharyngeal squamous cell carcinoma (tumor volume); format: in vivo; details: 8 mg/kg through abdominal cavity; fractional irradiation 12 Gy 4 times per week for 4 weeks; FIG. 3
Protocol: as §1, §2, §3, §4

[5] = M. J. Park et al., Int. J. Oncol. 22, 2003; cited from earlier work

Row | Molecule | gastrointestinal toxicity on oral administration [1] | growth of tumor (tumor volume), combination with irradiation compared to irradiation alone [2] | tumor growth inhibition, separate treatment of tetra-arsenic oxide compared to control group ([3]; 8 mg/kg once through abdominal cavity, no irradiation) | tumor growth, combination with irradiation compared to irradiation alone ([3]; 8 mg/kg through abdominal cavity plus local irradiation) | radiosensitizer effect on tumor volume with fractional irradiation [4] | toxicity on oral administration [5]
1 | arsenic trioxide | serious gastrointestinal toxicity |  |  |  |  | 
2 | O1[As]2O[As]3O[As]1O[As](O2)O3 [tetra-arsenic oxide, 2,4,6,8,9,10-Hexaoxa-1,3,5,7-tetraarsatricyclo [3.3.1.1^3,7]decane] |  | significantly reduced the growth of tumor | hardly has an effect on tumor growth inhibition | significantly reducing tumor growth | significant effect as a radiosensitizer | very low toxicity
